Activity calls are given as the source filed them. The rule behind the calls is not given here.
These molecules were tested on HL-60 (assay: Cytotoxicity against human HL60 cells assessed as cell viability at 30 uM after 24 hrs by MTS assay). Conditions: not given.
Assay type: functional

| SMILES | Activity |
| --- | --- |
| O=Cc1cc2c(cc1O)[nH]c1ccccc12 | inactive |
| COC(=O)c1cc2c(cc1O)[nH]c1ccccc12 | inactive |
| COc1cc2[nH]c3ccccc3c2cc1C=O | inactive |
| COC(=O)c1cc(O)c2[nH]c3ccccc3c2c1CC=C(C)C | inactive |
| COC(=O)c1cc(OC)c2[nH]c3ccccc3c2c1CC=C(C)C | inactive |

Same assay, conditions: HL-60, 24 h, read-out: Activity

| SMILES | viability at 30 µM [%] |
| --- | --- |
| COc1cc2c(c3c1[nH]c1ccccc13)CC(C(C)(C)O)OC2=O (stereo not drawn) [CLAUSAMINE C] | 79.7 |
| COC(=O)c1cc(OC)c2[nH]c3ccccc3c2c1/C=C/C(C)(C)O [CLAUSAMINE E] | 47.3 |
| C=C(C)C1Cc2c(cc(OC)c3[nH]c4ccccc4c23)C(=O)O1 (stereo not drawn) [CLAUSAMINE B] | 80.3 |

— ChEMBL document CHEMBL1153771, “Gamma-lactone carbazoles from Clausena anisata” (2009)
